Results published in patent publication US20230092890A1, “1, 3, 4-Oxadiazole derivative compounds as histone deacetylase 6 inhibitor, and the pharmaceutical composition comprising the same” (Chong Kun Dang Pharmaceutical Corp., priority 2019, published 2023).
pIC50: −log10 of the molar value.

Key:
HDAC1 = molecular target: T1, HDAC1 (Homo sapiens, UniProt Q13547); assay: HDAC enzyme activity inhibition (in vitro), HDAC1 Fluorimetric Drug Discovery Assay Kit; format: biochemical; conditions: samples at 100, 1000 and 10000 nM; 37° C. 60 minutes; fluorescence Ex 390, Em 460; read-out: HDAC1 IC50
T1 construct: purchased Enzolifesciences BML-AK511
T1 sequence (Q13547 whole entry): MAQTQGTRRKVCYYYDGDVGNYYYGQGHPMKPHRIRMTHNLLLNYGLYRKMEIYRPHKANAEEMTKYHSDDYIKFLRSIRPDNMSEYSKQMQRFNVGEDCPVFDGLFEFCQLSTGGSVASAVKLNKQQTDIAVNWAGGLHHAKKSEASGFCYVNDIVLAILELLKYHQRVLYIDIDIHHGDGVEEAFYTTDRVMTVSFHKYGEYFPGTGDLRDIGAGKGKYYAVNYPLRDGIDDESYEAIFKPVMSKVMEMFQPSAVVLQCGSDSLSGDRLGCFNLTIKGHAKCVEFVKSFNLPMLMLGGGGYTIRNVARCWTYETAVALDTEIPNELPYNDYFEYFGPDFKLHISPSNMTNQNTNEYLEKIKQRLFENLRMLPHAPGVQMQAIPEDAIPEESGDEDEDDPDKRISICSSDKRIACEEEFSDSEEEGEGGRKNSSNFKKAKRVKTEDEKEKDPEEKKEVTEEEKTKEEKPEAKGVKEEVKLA
Procedure: <Experimental Example 1> Identification of HDAC Enzyme Activity Inhibition (In Vitro)
A selective HDAC6 inhibitor is important for selectivity of HDAC1 inhibition, which is a cause of side effects, and thus HDAC1/6 enzyme selectivity and cell selectivity (HDAC1: histone acetylation/HDAC6: tubulin acetylation) were identified.
(§1) A HDAC enzyme inhibitory capacity of a test material was measured by using HDAC1 Fluorimetric Drug Discovery Assay Kit (Enzolifesciences: BML-AK511) and HDAC6 human recombinant (Calbiochem: 382180). For a HDAC1 assay, samples were treated at a concentration of 100, 1000 and 10000 nM. For a HDAC6 assay, samples were treated at a concentration of 0.1, 1, 10, 100 and 1000 nM. After the above sample treatment, a reaction was continued at 37° C. for 60 minutes, then treated with a developer, and then subjected to a reaction at 37° C. for 30 minutes, after which fluorescence intensity (Ex 390, Em 460) was measured by using FlexStatin3 (Molecular device).

HDAC6 human recombinant = molecular target: T2, HDAC6 human recombinant (Homo sapiens, UniProt Q9UBN7); assay: HDAC enzyme activity inhibition (in vitro), HDAC6 assay; format: biochemical; conditions: samples at 0.1, 1, 10, 100 and 1000 nM; 37° C. 60 minutes; fluorescence Ex 390, Em 460; read-out: HDAC6 IC50
T2 construct: purchased Calbiochem 382180
T2 sequence (Q9UBN7 1-1215): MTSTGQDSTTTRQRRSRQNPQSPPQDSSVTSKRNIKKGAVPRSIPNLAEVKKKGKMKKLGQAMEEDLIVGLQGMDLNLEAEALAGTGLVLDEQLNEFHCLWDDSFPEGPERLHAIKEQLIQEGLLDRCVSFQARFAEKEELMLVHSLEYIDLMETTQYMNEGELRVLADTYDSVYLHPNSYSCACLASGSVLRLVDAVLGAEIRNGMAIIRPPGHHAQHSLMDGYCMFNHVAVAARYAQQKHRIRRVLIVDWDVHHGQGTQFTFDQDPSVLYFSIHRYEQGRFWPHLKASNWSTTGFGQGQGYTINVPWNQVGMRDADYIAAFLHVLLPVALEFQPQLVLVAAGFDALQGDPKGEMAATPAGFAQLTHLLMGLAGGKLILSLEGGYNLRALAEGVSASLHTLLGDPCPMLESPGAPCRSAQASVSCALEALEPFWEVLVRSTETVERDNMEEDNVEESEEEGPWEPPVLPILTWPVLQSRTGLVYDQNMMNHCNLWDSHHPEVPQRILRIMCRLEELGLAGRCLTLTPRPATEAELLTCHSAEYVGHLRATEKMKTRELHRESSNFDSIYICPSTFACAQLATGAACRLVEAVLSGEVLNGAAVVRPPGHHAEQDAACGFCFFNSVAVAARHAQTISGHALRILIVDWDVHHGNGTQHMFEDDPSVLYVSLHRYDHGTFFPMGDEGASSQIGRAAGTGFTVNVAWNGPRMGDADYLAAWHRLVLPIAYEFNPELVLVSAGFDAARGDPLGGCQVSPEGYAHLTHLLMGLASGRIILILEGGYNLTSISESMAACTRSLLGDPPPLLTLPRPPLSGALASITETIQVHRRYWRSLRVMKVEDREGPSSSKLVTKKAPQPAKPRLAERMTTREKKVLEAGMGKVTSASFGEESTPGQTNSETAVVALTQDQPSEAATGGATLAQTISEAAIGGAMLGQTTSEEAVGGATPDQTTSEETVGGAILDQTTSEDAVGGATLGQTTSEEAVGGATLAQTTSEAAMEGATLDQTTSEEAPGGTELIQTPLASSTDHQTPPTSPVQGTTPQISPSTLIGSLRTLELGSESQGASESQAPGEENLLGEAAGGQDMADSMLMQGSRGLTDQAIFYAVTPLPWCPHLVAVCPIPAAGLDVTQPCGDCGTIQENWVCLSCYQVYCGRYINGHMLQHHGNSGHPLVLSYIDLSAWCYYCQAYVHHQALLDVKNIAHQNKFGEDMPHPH
Procedure: as §1, with “For a HDAC6 assay, samples were treated at a concentration of 0.1, 1, 10, 100 and 1000 nM.” left out

SMILES | pIC50 (HDAC1) | pIC50 (HDAC6 human recombinant)
CC(C)(C)OC(=O)N1CCC(c2ccc3c(c2)oc(=O)n3Cc2ccc(-c3nnc(C(F)F)o3)cn2)CC1 [Compound 307, tert-butyl 4-(3-((5-(5-(difluoromethyl)-1,3,4-oxadiazole-2-yl)pyridine-2-yl)methyl)-2-oxo-2,3-dihydrobenzo[d]oxazole-6-yl)piperidine-1-carboxylate] | < 5.00 | 6.40
CN1CCC(n2c(=O)n(Cc3ccc(-c4nnc(C(F)F)o4)cc3F)c3cc(-c4cccnc4)ccc32)CC1 [Compound 125, 3-(4-(5-(difluoromethyl)-1,3,4-oxadiazole-2-yl)-2-fluorobenzyl)-1-(1-methylpiperidine-4-yl)-5-(pyridine-3-yl)-1,3-dihydro-2H-benzo[d]imidazole-2-one] | < 5.00 | 6.22
O=c1n(Cc2ccc(-c3nnc(C(F)F)o3)cn2)c2ccccc2n1C1CCOCC1 [Compound 12, 1-((5-(5-(difluoromethyl)-1,3,4-oxadiazole-2-yl)pyridine-2-yl)methyl)-3-(tetrahydro-2H-pyran-4-yl)-1,3-dihydro-2H-benzo[d]imidazole-2-one] | < 5.00 | 6.80
O=c1n(Cc2ccc(-c3nnc(C(F)F)o3)cc2F)c2ccccc2n1C1CCS(=O)(=O)CC1 [Compound 35, 1-(4-(5-(difluoromethyl)-1,3,4-oxadiazole-2-yl)-2-fluorobenzyl)-3-(1,1-dioxydotetrahydro-2H-thiopyran-4-yl)-1,3-dihydro-2H-benzo[d]imidazole-2-one] | < 5.00 | 6.69
O=c1n(Cc2ccc(-c3nnc(C(F)F)o3)cn2)c2cc(F)ccc2n1C1CCN(C2CCC2)CC1 [Compound 52, 1-(1-cyclobutylpiperidine-4-yl)-3-((5-(5-(difluoromethyl)-1,3,4-oxadiazole-2-yl)pyridine-2-yl)methyl)-5-fluoro-1,3-dihydro-2H-benzo[d]imidazole-2-one] | < 5.00 | –
Cn1nccc1-c1cc2c(cc1F)n(Cc1ccc(-c3nnc(C(F)F)o3)cn1)c(=O)n2C [Compound 226, 1-((5-(5-(difluoromethyl)-1,3,4-oxadiazole-2-yl)pyridine-2-yl)methyl)-6-fluoro-3-methy 1-5-(1-methyl-1H-pyrazole-5-yl)-1,3-dihydro-2H-benzo[d]imidazole-2-one] | < 5.00 | –
O=c1n(Cc2ccc(-c3nnc(C(F)F)o3)cn2)c2cc(F)ccc2n1C1CCS(=O)(=O)CC1 [Compound 188, 3-((5-(5-(difluoromethyl)-1,3,4-oxadiazole-2-yl)pyridine-2-yl)methyl)-1-(1,1-dioxydotetrahydro-2H-thiopyran-4-yl)-5-fluoro-1,3-dihydro-2H-benzo[d]imidazole-2-one] | < 5.00 | –
CN1CCN(c2cc3c(cc2F)n(Cc2ccc(-c4nnc(C(F)F)o4)cn2)c(=O)n3C)CC1 [Compound 260, 1-((5-(5-(difluoromethyl)-1,3,4-oxadiazole-2-yl)pyridine-2-yl)methyl)-6-fluoro-3-methy 1-5-(4-methylpiperazine-1-yl)-1,3-dihydro-2H-benzo[d]imidazole-2-one] | < 5.00 | –

Second part, the molecule after the results:

pIC50 (HDAC1) | pIC50 (HDAC6 human recombinant) | SMILES
< 5.00 | 7.44 | O=c1n(Cc2ccc(-c3nnc(C(F)F)o3)cc2)c2cc(F)c(F)cc2n1C1CCN(C2COC2)CC1 [Compound 96, 1-(4-(5-(difluoromethyl)-1,3,4-oxadiazole-2-yl)benzyl)-5,6-difluoro-3-(1-(oxetan-3-yl)piperidine-4-yl)-1,3-dihydro-2H-benzo[d]imidazole-2-one]
< 5.00 | 7.06 | CN1CCC(n2c(=O)n(Cc3ccc(-c4nnc(C(F)F)o4)cc3F)c3cc(F)c(-c4ccco4)cc32)CC1 [Compound 114, 1-(4-(5-(difluoromethyl)-1,3,4-oxadiazole-2-yl)-2-fluorobenzyl)-6-fluoro-5-(furan-2-yl)-3-(1-methylpiperidine-4-yl)-1,3-dihydro-2H-benzo[d]imidazole-2-one]
< 5.00 | 6.06 | Cn1c(=O)n(Cc2ccc(-c3nnc(C(F)F)o3)cc2F)c2cc(-c3cccc(F)c3)ccc21 [Compound 112, 3-(4-(5-(difluoromethyl)-1,3,4-oxadiazole-2-yl)-2-fluorobenzyl)-5-(3-fluorophenyl)-1-m ethyl-1,3-dihydro-2H-benzo[d]imidazole-2-one]
< 5.00 | 6.89 | CC(C)(C)OC(=O)N1CCC(n2cc(-c3cc4oc(=O)n(Cc5ccc(-c6nnc(C(F)F)o6)cn5)c4cc3F)cn2)CC1 [Compound 358, tert-butyl 4-(4-(3-((5-(5-(difluoromethyl)-1,3,4-oxadiazole-2-yl)pyridine-2-yl)methyl)-5-fluoro-2-oxo-2,3-dihydrobenzo[d]oxazole-6-yl)-1H-pyrazole-1-yl)piperidine-1-carboxylate]
< 5.00 | 6.90 | CS(=O)(=O)N1CCC(n2c(=O)n(Cc3ccc(-c4nnc(C(F)F)o4)cc3F)c3cc(C(F)(F)F)ccc32)CC1 [Compound 196, 3-(4-(5-(difluoromethyl)-1,3,4-oxadiazole-2-yl)-2-fluorobenzyl)-1-(1-(methylsulfonyl)piperidine-4-yl)-5-(trifluoromethyl)-1,3-dihydro-2H-benzo[d]imidazole-2-one]
< 5.00 | 7.59 | O=c1n(Cc2ccc(-c3nnc(C(F)F)o3)cc2F)c2cc(F)ccc2n1C1CCN(C2CCOCC2)CC1 [Compound 72, 3-(4-(5-(difluoromethyl)-1,3,4-oxadiazole-2-yl)-2-fluorobenzyl)-5-fluoro-1-(1-(tetrahydro-2H-pyran-4-yl)piperidine-4-yl)-1,3-dihydro-2H-benzo[d]imidazole-2-one]
< 5.00 | 7.36 | CN1CCC(n2c(=O)n(Cc3ccc(-c4nnc(C(F)F)o4)cc3F)c3ccc(Cl)cc32)CC1 [Compound 101, 5-chloro-1-(4-(5-(difluoromethyl)-1,3,4-oxadiazole-2-yl)-2-fluorobenzyl)-3-(1-methylpiperidine-4-yl)-1,3-dihydro-2H-benzo[d]imidazole-2-one]
< 5.00 | 7.26 | CC(C)N1CCN(c2ccc(-c3cc4oc(=O)n(Cc5ccc(-c6nnc(C(F)F)o6)cn5)c4cc3F)cn2)CC1 [Compound 349, 3-((5-(5-(difluoromethyl)-1,3,4-oxadiazole-2-yl)pyridine-2-yl)methyl)-5-fluoro-6-(6-(4-isopropylpiperazine-1-yl)pyridine-3-yl)benzo[d]oxazole-2(3H)-one]
< 5.00 | 7.70 | CC(=O)N1CCC(n2c(=O)n(Cc3ccc(-c4nnc(C(F)F)o4)cn3)c3cc(Cl)ccc32)CC1 [Compound 215, 1-(1-acetylpiperidine-4-yl)-5-chloro-3-((5-(5-(difluoromethyl)-1,3,4-oxadiazole-2-yl)pyridine-2-yl)methyl)-1,3-dihydro-2H-benzo[d]imidazole-2-one]
